Test results taken from ChEMBL document CHEMBL4396887, “Five-Membered N-Heterocyclic Scaffolds as Novel Amino Bioisosteres at γ-Aminobutyric Acid (GABA) Type A Receptors and GABA Transporters” (J Med Chem, 2019).
The source made the active and inactive calls. The rule behind the calls is not given here.

Legend:
Assay type in all cases: cell-based
[1] = biological target: T1, GABA-A receptor; alpha-1/beta-2/gamma-2 (Homo sapiens, UniProt P14867+P18507+P47870); test: Agonist activity at recombinant human GABA-A alpha1beta2gamma2S receptor transiently expressed in human tsA201 cells incubated for 30 mins and measured up to 90 secs by FMP dye based FLIPR membrane potential blue assay
T1 sequence (P14867 whole entry): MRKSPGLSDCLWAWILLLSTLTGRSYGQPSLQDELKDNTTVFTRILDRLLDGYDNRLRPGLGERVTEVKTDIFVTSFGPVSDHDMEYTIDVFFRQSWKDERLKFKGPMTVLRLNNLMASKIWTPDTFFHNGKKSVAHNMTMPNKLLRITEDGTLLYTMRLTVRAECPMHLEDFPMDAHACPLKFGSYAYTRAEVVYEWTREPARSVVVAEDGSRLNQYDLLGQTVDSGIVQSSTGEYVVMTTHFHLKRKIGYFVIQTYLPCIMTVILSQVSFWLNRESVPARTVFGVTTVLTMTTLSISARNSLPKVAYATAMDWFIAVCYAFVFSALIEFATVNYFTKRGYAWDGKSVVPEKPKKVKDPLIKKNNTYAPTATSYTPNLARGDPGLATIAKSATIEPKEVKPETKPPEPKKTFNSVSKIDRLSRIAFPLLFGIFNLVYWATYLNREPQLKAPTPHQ
T1 sequence (P47870 whole entry): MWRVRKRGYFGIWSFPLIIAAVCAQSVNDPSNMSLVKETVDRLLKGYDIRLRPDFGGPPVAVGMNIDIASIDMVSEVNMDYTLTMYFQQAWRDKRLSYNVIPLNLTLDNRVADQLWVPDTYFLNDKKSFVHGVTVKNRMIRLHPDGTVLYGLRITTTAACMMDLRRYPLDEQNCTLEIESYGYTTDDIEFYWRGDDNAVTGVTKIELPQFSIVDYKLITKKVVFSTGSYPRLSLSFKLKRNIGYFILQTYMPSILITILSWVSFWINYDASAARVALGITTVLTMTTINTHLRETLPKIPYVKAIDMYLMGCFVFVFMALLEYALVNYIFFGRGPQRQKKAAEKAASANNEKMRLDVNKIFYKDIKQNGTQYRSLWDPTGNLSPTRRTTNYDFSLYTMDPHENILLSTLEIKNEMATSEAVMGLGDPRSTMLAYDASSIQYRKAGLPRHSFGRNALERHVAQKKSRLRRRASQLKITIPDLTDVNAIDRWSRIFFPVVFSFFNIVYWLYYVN
T1 sequence (P18507 whole entry): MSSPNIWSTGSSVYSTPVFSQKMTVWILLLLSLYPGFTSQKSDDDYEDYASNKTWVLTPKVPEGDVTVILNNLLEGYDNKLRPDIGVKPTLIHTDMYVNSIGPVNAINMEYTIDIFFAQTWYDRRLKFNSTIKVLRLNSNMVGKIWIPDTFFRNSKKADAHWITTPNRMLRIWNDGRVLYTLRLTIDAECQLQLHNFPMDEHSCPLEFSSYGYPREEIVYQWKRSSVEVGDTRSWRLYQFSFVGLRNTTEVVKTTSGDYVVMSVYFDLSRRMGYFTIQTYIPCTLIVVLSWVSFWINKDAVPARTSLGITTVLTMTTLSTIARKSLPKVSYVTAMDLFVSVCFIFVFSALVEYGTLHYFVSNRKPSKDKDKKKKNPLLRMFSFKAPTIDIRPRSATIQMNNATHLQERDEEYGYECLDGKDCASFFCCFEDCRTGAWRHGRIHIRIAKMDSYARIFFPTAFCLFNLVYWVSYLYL

cells = settings: Homo sapiens, tsA201, 0.5 h
Homo sapiens = species: Homo sapiens; test: Agonist activity at recombinant human GABA-A alpha3beta2gamma2S receptor transiently expressed in human tsA201 cells assessed as GABA-induced maximum response incubated for 30 mins and measured up to 90 secs by FMP dye based FLIPR membrane potential blue assay relative to GABA
[2] = biological target: T2, Gamma-aminobutyric acid receptor subunit alpha-4/beta-2/gamma-2 (Homo sapiens, UniProt P47870+P18507+P48169); test: Agonist activity at recombinant human GABA-A alpha4beta2gamma2S receptor transiently expressed in human tsA201 cells incubated for 30 mins and measured up to 90 secs by FMP dye based FLIPR membrane potential blue assay
T2 sequence (P48169 whole entry, one chain of several): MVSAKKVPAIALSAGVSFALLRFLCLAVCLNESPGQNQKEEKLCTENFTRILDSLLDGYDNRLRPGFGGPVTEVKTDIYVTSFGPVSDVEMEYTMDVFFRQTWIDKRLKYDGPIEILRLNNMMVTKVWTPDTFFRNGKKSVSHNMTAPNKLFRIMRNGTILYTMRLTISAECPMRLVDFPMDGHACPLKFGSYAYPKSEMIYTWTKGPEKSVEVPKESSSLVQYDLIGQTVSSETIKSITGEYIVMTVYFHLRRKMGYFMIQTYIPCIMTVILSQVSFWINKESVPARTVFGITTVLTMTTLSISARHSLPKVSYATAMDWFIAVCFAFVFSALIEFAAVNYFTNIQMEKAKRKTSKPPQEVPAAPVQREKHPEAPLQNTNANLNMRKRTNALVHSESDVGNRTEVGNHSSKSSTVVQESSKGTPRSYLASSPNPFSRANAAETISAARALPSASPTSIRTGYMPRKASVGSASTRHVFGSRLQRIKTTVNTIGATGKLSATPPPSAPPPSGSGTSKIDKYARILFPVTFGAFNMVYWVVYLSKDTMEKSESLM

[3] = biological target: T2, Gamma-aminobutyric acid receptor subunit alpha-4/beta-2/gamma-2; test: Agonist activity at recombinant human GABA-A alpha4beta2gamma2S receptor transiently expressed in human tsA201 cells assessed as GABA-induced maximum response incubated for 30 mins and measured up to 90 secs by FMP dye based FLIPR membrane potential blue assay relative to GABA
[4] = biological target: Gamma-aminobutyric acid receptor subunit alpha-5/beta-2/gamma-2 (Homo sapiens) (UniProt P47870+P18507+P31644); test: Agonist activity at recombinant human GABA-A alpha5beta2gamma2S receptor transiently expressed in human tsA201 cells assessed as GABA-induced maximum response incubated for 30 mins and measured up to 90 secs by FMP dye based FLIPR membrane potential blue assay relative to GABA
[5] = biological target: Sodium- and chloride-dependent GABA transporter 1 (Homo sapiens, UniProt P30531)
Chain of Sodium- and chloride-dependent GABA transporter 1 (P30531 whole entry): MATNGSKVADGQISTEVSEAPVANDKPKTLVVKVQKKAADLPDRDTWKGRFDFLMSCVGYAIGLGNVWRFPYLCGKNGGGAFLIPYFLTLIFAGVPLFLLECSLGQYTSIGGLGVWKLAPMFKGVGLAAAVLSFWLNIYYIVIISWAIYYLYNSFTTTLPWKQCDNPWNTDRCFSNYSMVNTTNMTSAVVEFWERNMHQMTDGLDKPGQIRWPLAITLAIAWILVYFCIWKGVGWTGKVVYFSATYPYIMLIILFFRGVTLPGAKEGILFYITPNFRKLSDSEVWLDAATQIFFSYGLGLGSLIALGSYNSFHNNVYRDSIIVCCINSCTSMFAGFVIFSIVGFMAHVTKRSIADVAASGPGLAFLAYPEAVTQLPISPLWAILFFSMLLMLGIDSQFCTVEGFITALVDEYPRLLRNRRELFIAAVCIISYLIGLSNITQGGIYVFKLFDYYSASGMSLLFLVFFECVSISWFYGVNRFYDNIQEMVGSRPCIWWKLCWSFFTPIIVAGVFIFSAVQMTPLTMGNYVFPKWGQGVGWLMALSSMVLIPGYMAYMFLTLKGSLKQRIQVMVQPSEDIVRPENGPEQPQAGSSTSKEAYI

[6] = biological target: T3, Sodium- and chloride-dependent GABA transporter 2 (Homo sapiens) (UniProt Q9NSD5); test: Inhibition of human GAT2 expressed in Flp-In CHO cells assessed as reduction in [3H]GABA uptake at 100 uM incubated for 3 mins by liquid scintillation counting method relative to control
T3 sequence (whole entry): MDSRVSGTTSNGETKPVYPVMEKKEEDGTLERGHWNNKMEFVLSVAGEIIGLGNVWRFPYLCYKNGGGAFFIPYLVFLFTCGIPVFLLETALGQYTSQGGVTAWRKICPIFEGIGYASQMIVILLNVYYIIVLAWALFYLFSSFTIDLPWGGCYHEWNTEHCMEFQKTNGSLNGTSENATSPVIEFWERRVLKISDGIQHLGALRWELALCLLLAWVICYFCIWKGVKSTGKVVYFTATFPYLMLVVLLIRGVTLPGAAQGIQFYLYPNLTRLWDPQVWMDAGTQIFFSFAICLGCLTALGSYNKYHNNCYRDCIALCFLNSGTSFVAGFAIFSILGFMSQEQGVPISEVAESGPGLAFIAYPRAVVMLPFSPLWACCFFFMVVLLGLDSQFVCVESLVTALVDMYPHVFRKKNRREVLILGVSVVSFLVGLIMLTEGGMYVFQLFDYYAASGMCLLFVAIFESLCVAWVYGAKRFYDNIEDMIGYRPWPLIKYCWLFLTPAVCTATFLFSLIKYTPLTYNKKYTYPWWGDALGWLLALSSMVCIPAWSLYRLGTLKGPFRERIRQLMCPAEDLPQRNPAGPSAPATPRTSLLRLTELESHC

EC50 [1] [µM] | EC50 (cells; read-out: EC50) [µM] | EC50 (cells; read-out: pEC50 (converted)) [µM] | EC50 [2] | pEC50 [2] | Rmax [3] | Rmax [4] [%] | IC50 ([5]; read-out: IC50) [µM] | inhibition [6] [%] | IC50 ([5]; read-out: pIC50 (converted)) [µM] | Structure (SMILES) | Rmax (Homo sapiens)
48 | 17 | 16.6 | Not Active | inactive | inactive | 94 | > 100 | > 30 | – | C[C@@H](C(=O)O)[C@H]1CSC(N)=N1 (relative stereo) | 96%
1.8 | 1.1 | 1.1 | – | – | 93% | 98 | 179 | > 30 | 158 | NC1=NC(CC(=O)O)CS1 (centres undefined) | 95%
– | 54 | 55 | Not Active | inactive | inactive | 92 | > 100 | > 30 | – | C[C@@H]1SC(N)=N[C@@H]1CC(=O)O (relative stereo) | 76%
– | – | – | Not Active | – | – | – | > 100 | – | – | CC(C(=O)O)C1CSC(N)=N1 (stereo in doubt; l-10b) | –
11 | 12 | 11.5 | – | – | 81% | 90 | 96.9 | > 30 | – | NC1=NC(CC(=O)O)CN1 (centres undefined) | 105%
– | – | – | Not Active | inactive | inactive | 90 | > 100 | > 30 | – | C[C@H]1SC(N)=N[C@@H]1CC(=O)O (relative stereo) | inactive
9.7 | 36 | 35.5 | Not Active | inactive | inactive | 81 | > 100 | > 30 | – | C[C@@H](C(=O)O)[C@@H]1CSC(N)=N1 (relative stereo) | 19%
– | – | – | Not Active | inactive | inactive | 86 | 3.9 | > 30 | 3.16 | O=C(O)C[C@@H]1CCNC1 | inactive
7.6 | 5.4 | 5.37 | – | – | 74% | 88 | 71.4 | > 30 | – | O=C(O)CC1CNC=N1 (centres undefined) | 91%
25 | 30 | 30.2 | – | – | – | – | > 100 | – | – | CC(C(=O)O)C1CSC(N)=N1 (stereo in doubt; l-10a) | –
12 | 5.6 | 5.62 | – | – | 94% | 99 | 3.6 | > 30 | 2.51 | O=C(O)C[C@H]1CCNC1 | 102%
